Experimental data published in US9399663B2, “Competitive inhibitor of GP120” (priority 2014, dated 2016).
Values joined by “and” are separate entries in the source; they are usually repeats but may differ in a detail not shown here. Equal values may be shown once. “Also recorded” adds a separate entry of the source. Read-outs that look alike come from different tables or passages of the source. Residues, ends and D or L forms follow the SMILES beside them.

Experiments:
tubulin dimer = assay: SPR (BIACORE T200) binding to immobilized tubulin dimer; set-up: species or system Porcine; settings: 1 uM peptide alone; 60 sec injection
Method: (§1) Surface plasmon resonance (SPR). BIACORE® T200™ was used to determine the kinetic parameters for the binding of recombinant TUBB3, tubulin dimer, and assembled microtubules (ligands) to the various isoforms of gp120 or related peptides (analytes). Recombinant TUBB3, tubulin dimer, and assembled MTs were covalently attached to different flow cells of a carboxymethyldextran (CM5) sensor chip by amine coupling. The chip surface was activated for 720 sec at 10 μL/min with of 1:1 mixture of 0.1 M N-Hydroxysuccinimide (NHS) and 0.5 M 1-Ethyl-3-(-3-dimethylaminopropyl)-carbodiimide hydrochloride (EDC). […] After ligand capture, the surfaces were deactivated by injecting 1 M ethanolamine for 720 sec at 10 μL/min. HBS-P (10 mM HEPES, pH7.4, 150 mM NaCl, 0.05% P-20) with 2 mM MgCl2 used as the running buffer. Flow cell 1 on each chip was left empty and used for reference surface. […] Kinetic studies were performed by injecting different concentrations of the analytes in triplicate. The chip surface was regenerated by with 10 mM glycine pH 1.5 injected for 30 sec at a flow rate of 100 μL/min. Each sample was injected for 60 sec (contact time) followed by a dissociation time of 300 sec at a flow rate of 100 μL/min. Data was analyzed with BIACORE® T200™ Evaluation Software (version 1) to determine the equilibrium dissociation constant (KD) from a 1:1 binding model. Binding studies with peptides Helix A and Helix B were done in the same way as described above. Kinetic studies were performed by injecting different concentrations (20 μM, 10 μM, 5 μM, 2.5 μM, 1.25 μM and 0.625 μM) of Helix A and Helix B. Competition experiments with Helix A and Helix B were performed by mixing 100 nM gp120 isoforms with 10 μM of each peptide and injecting over the sensorchip surface.
Recombinant TUBB3, tubulin dimer, and assembled MTs from bovine brains were immobilized on a BIACORE® CM5 chip by amine coupling. Different concentrations of gp120s (from 3.13 to 100 nM) were injected over the surface in triplicates in each experiment. The kinetics of interaction was analyzed using a BIACORE® T200™ instrument. […]

[1] = biological target: T1, gp120 binding to Tubulin β-3 (Homo sapiens, UniProt Q13509); assay: SPR competition: gp120 premixed with Helix peptide injected over TUBB3; settings: 60 sec injection
T1 construct: purchased MyBioSource (TUBB3); Immunodiagnostics Inc, Woburn, Mass; (gp120s)
Source text: (§2) BIACORE® T200™ was used to determine the kinetic parameters for the binding of recombinant TUBB3, tubulin dimer, and assembled MTs to gp120s in the absence and presence of Helix-A peptide. […] Representative data are from one of three independent experiments.
(§3) Surface plasmon resonance (SPR). BIACORE® T200™ was used to determine the kinetic parameters for the binding of recombinant TUBB3, tubulin dimer, and assembled microtubules (ligands) to the various isoforms of gp120 or related peptides (analytes). Recombinant TUBB3, tubulin dimer, and assembled MTs were covalently attached to different flow cells of a carboxymethyldextran (CM5) sensor chip by amine coupling. The chip surface was activated for 720 sec at 10 μL/min with of 1:1 mixture of 0.1 M N-Hydroxysuccinimide (NHS) and 0.5 M 1-Ethyl-3-(-3-dimethylaminopropyl)-carbodiimide hydrochloride (EDC). […] After ligand capture, the surfaces were deactivated by injecting 1 M ethanolamine for 720 sec at 10 μL/min. HBS-P (10 mM HEPES, pH7.4, 150 mM NaCl, 0.05% P-20) with 2 mM MgCl2 used as the running buffer. Flow cell 1 on each chip was left empty and used for reference surface. TUBB3 (1040 RU), tubulin dimer (2086 RU), and assembled MTs (990 RU) were captured on the remaining 3 flow cells. […] Data was analyzed with BIACORE® T200™ Evaluation Software (version 1) to determine the equilibrium dissociation constant (KD) from a 1:1 binding model. […]

[2] = test system: gp120 binding to tubulin dimer; assay: SPR competition: gp120 premixed with Helix peptide injected over tubulin dimer; set-up: species or system Porcine; settings: 60 sec injection
Method: BIACORE® T200™ was used to determine the kinetic parameters for the binding of recombinant TUBB3, tubulin dimer, and assembled MTs to gp120s in the absence and presence of Helix-A peptide. Gp120s (100 nM) were injected over the surface alone or as a premix with Helix-A peptides (10 μM). Representative data are from one of three independent experiments.
as §3, with “surface.” for “surface. TUBB3 (1040 RU), tubulin dimer (2086 RU), and assembled MTs (990 RU) were captured on the remaining 3 flow cells.”

assembled MTs = assay: SPR (BIACORE T200) binding to immobilized assembled microtubules; set-up: species or system Porcine; settings: 1 uM peptide alone; 60 sec injection
Method: Surface plasmon resonance (SPR). BIACORE® T200™ was used to determine the kinetic parameters for the binding of recombinant TUBB3, tubulin dimer, and assembled microtubules (ligands) to the various isoforms of gp120 or related peptides (analytes). Recombinant TUBB3, tubulin dimer, and assembled MTs were covalently attached to different flow cells of a carboxymethyldextran (CM5) sensor chip by amine coupling. The chip surface was activated for 720 sec at 10 μL/min with of 1:1 mixture of 0.1 M N-Hydroxysuccinimide (NHS) and 0.5 M 1-Ethyl-3-(-3-dimethylaminopropyl)-carbodiimide hydrochloride (EDC). […] After ligand capture, the surfaces were deactivated by injecting 1 M ethanolamine for 720 sec at 10 μL/min. HBS-P (10 mM HEPES, pH7.4, 150 mM NaCl, 0.05% P-20) with 2 mM MgCl2 used as the running buffer. Flow cell 1 on each chip was left empty and used for reference surface. TUBB3 (1040 RU), tubulin dimer (2086 RU), and assembled MTs (990 RU) were captured on the remaining 3 flow cells. Kinetic studies were performed by injecting different concentrations of the analytes in triplicate. The chip surface was regenerated by with 10 mM glycine pH 1.5 injected for 30 sec at a flow rate of 100 μL/min. Each sample was injected for 60 sec (contact time) followed by a dissociation time of 300 sec at a flow rate of 100 μL/min. Data was analyzed with BIACORE® T200™ Evaluation Software (version 1) to determine the equilibrium dissociation constant (KD) from a 1:1 binding model. Binding studies with peptides Helix A and Helix B were done in the same way as described above. Kinetic studies were performed by injecting different concentrations (20 μM, 10 μM, 5 μM, 2.5 μM, 1.25 μM and 0.625 μM) of Helix A and Helix B. Competition experiments with Helix A and Helix B were performed by mixing 100 nM gp120 isoforms with 10 μM of each peptide and injecting over the sensorchip surface.
Recombinant TUBB3, tubulin dimer, and assembled MTs from bovine brains were immobilized on a BIACORE® CM5 chip by amine coupling. […] The kinetics of interaction was analyzed using a BIACORE® T200™ instrument. […]

recombinant TUBB3 = biological target: T2, recombinant TUBB3 (Homo sapiens, UniProt Q13509); assay: SPR (BIACORE T200) binding to immobilized TUBB3; settings: for SPR response (2-1) RU, Fc2: Tubulin β-3 1092 RU: 60 sec injection; for Kd: Ligand: TUBB3
T2 construct: purchased MyBioSource, San Diego, Calif
Method: as §1
Recombinant TUBB3, tubulin dimer, and assembled MTs from bovine brains were immobilized on a BIACORE® CM5 chip by amine coupling. Different concentrations of gp120s (from 3.13 to 100 nM) were injected over the surface in triplicates in each experiment. The kinetics of interaction was analyzed using a BIACORE® T200™ instrument. BiaEvaluation software was used to calculate binding affinities based on 1:1 binding model.

[3] = test system: gp120 binding to microtubules; assay: SPR competition: gp120 premixed with Helix peptide injected over microtubules; set-up: species or system Porcine; settings: 60 sec injection
Source text: as §2, §3

rat cortical neurons = assay: Penetration of neuronal membranes (confocal microscopy, transmission electron microscopy); assay type: cell-based; settings: 5 μM, 24 hours, FITC-labeled; listed as Helix-A peptide
Method: FTIR spectra of Helix-A nano. The gray line highlights the Amide region typical of peptide components. c. […] Representative images obtained by transmission electron microscopy showing unmodified MSN and Helix-A nano in intact and open lysosomes, respectively. Bar=500 nm.
Primary cortical neurons: Cortical neuronal cultures were prepared from the cortex of embryonic (E17-18) Sprague Dawley rats (Charles River, Mass.). Cells were seeded onto poly-L-lysine pre-coated plates in Neurobasal Medium containing 2% B27 supplement, […] glutamate, 0.5 mM L-glutamine, and 1% antibiotic-antimycotic solution (INVITROGEN®, Carlsbad, Calif.). Cultures were grown at 37° C. in 5% CO2/95% air for 7 days. Cultures contained ˜5% of non-neuronal cells. […]
Immunocytochemistry of primary neurons: Primary cortical neurons were maintained on glass coverslips for 7 days and fixed in 4% paraformaldehyde/phosphate buffer with 4% sucrose for 20 minutes at room temperature (RT). […] Coverslips were washed with PBS-T and correspondent fluorescence-conjugated secondary antibody (1:2000; INVITROGEN®, CA) were applied for 1 hour at RT. […] Image scale was calibrated and length of MAP-2 positive processes was measured in 10 neurons per field using ImageJ.

gp120IIIB = gp120IIIB (Human immunodeficiency virus type 1 group M subtype B, UniProt P04578); settings: dot blot, 2 μg peptide spotted, 5 μg gp120IIIB
Method: Dot blot analysis: CTTs or Helix-A and -B peptides (2 μg each) were spotted on a nitrocellulose membrane and allowed to dry. The membrane was then incubated in blocking buffer (5% BSA in TBST [[…] NaCl, 20 mM Tris-base, pH 7.5, 0.05% TWEEN® 20]) for 2 hours followed by incubation with a solution composed of 5 μg recombinant gp120 (for binding to CTTs) or 5 μg recombinant TUBB3 (for Helix-A and -B) in 20 mL of TBST for 2 hours. The membranes were washed and then incubated with a mouse anti-gp120 antibody (1:1000; Immunodiagnostics, Inc.) or mouse anti-TUBB3 antibody (1:5000; Covance, N.J.) in TBST for 2 hours. Membranes were washed and incubated in goat anti-mouse HP-conjugated secondary antibody (1:20,000; Jackson ImmunoResearch Laboratories, Inc., PA). Visualization of the bands was then accomplished by the addition of PIERCE® SUPERSIGNAL™ West Pico-Stable Peroxidase Solution and Luminol/Enhancer Solution (Pierce Biotechnology, Inc., Rockford, Ill.).
Several CTTs (see Table 1) synthesized by […]® were used. Peptides (2 μg each) were spotted on a nitrocellulose membrane and incubated with a solution composed of 5 μg of gp120IIIB (Immunodiagnostics) in 20 mL of TBS-TWEEN® 2 hours at RT, followed by incubation with a specific primary antibody (Immunodiagnostics, +4° C., ON). Following incubation with a corresponding HRP-conjugated secondary antibody 1 hour at RT, the immunocomplexes were visualized with chemiluminescence.

[4] = 100 nM GP120IIIB + 1 uM peptide
[5] = 100 nM GP120IIIB + 10 uM peptide

T1 sequence (Q13509 whole entry): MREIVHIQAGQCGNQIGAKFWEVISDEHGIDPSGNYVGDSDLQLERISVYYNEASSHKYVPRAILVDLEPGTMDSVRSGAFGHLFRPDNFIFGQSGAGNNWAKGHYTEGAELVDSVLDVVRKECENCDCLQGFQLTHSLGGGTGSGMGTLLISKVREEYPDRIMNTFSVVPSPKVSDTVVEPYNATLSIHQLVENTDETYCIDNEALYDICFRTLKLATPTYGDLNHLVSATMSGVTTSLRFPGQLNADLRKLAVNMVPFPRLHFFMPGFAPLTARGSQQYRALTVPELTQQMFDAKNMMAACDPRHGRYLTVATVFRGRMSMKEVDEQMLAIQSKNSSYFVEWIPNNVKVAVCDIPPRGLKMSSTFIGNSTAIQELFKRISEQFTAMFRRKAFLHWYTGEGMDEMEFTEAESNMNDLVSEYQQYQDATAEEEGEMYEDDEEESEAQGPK
T2 sequence (Q13509 whole entry): as above

RAKWNNTLKQIASK (listed as Homo sapiens) [Helix B]
SPR response (3-1) RU, Fc3: Tubulin Dimer 1900 RU (tubulin dimer): 0.4 RU and 0.5 RU
SPR response (2-1) RU, Fc2: Tubulin β-3 1092 RU [1, 4]: 33 RU
SPR response (2-1) RU, Fc2: Tubulin β-3 1092 RU [1, 5]: 34 RU and 32 RU
SPR response (3-1) RU, Fc3: Tubulin Dimer 1900 RU [2, 4]: 18.5 RU
SPR response (3-1) RU, Fc3: Tubulin Dimer 1900 RU [2, 5]: 20 RU and 18 RU
SPR response (4-1) RU, Fc4: Microtubules 970 RU (assembled MTs): N/B
SPR response (2-1) RU, Fc2: Tubulin β-3 1092 RU (recombinant TUBB3; 10 uM peptide alone): 1.1 RU and 1.2 RU
SPR response (4-1) RU, Fc4: Microtubules 970 RU [3, 4]: 16.5 RU
SPR response (4-1) RU, Fc4: Microtubules 970 RU [3, 5]: 19 RU and 20 RU

CC[C@H](C)[C@H](NC(=O)[C@H](CC(=O)O)NC(=O)[C@H](CCC(=O)O)NC(=O)[C@H](Cc1c[nH]cn1)NC(=O)[C@H](CCSC)NC(=O)[C@H](CCC(N)=O)NC(=O)[C@H](CCC(=O)O)NC(=O)[C@@H](NC(=O)[C@H](CCSC)NC(=O)[C@H](CC(=O)O)NC(=O)[C@@H](N)CC(N)=O)C(C)C)C(=O)N[C@H](C(=O)N[C@@H](CO)C(=O)N[C@@H](CC(C)C)C(=O)N[C@@H](Cc1c[nH]c2ccccc12)C(=O)N[C@@H](CC(=O)O)C(=O)N[C@@H](CCC(N)=O)C(=O)N[C@@H](CO)C(=O)N[C@@H](CC(C)C)C(=O)N[C@@H](CCCCN)C(=O)O)[C@@H](C)CC [Helix A] (H-NDMVEQMHEDIISLWDQSLK-OH; N-terminus and C-terminus assumed)
penetration of neuronal cell membrane (rat cortical neurons): could not penetrate; also recorded: not cell-membrane-penetrable

gp120MN: HIV envelope protein gp120, strain MN, purchased from Immunodiagnostics
SPR response (2-1) RU, Fc2: Tubulin β-3 1092 RU (recombinant TUBB3; 100 nM gp120 alone): 9 RU and 8.8 RU
Kd (recombinant TUBB3; mean of two independent experiments, read-out: Mean KD): 740 nM
Kd (recombinant TUBB3; single experiment, gp120 3.13 to 100 nM, 1:1 binding model, read-out: KD): 579 nM and 901 nM

EDDEEESEA [SEQ ID NO: 13]
Binding to gp120 (gp120IIIB; listed as tubulin β-3 (TUBB3)): potential binding partners

EGEGEEEGE [SEQ ID NO: 5]
Binding to gp120 (gp120IIIB): YES
Binding to gp120 (gp120IIIB; listed as tubulin-α1A/1B Δ2): potential binding partners
